{"source": "patent US12534460B2", "about": "“LSD salt crystal forms” (Mind Medicine, Inc., priority 2021, dated 2026)", "key": {"[1]": {"assay": "Compression of amorphous solid, analysis by XRPD", "assay_type": "physicochemical", "conditions": "force of 10^5N for approximately 24 hours", "description": "Experimental: D-LSD amorphous oxalate (Lot: DC1134, ˜50 mg) was pressed with a force of 10^5N for approximately 24 hours. The solids were then removed from the press for analysis by XRPD."}, "[2]": {"assay": "Heat cycled maturation and solubility assessment (liquors analysed by HPLC versus a standard)"}, "[3]": {"assay": "Accelerated storage at 40° C./75% RH for 14 days", "assay_type": "physicochemical", "conditions": "for XRPD of Output / Nature of solid: 40° C./75% RH, 14 days, unsealed vials; for XRPD of Output: physical stability; for Nature of solid: visual observation for deliquescence; for change in form after stress: after stress at 40° C./75 RH", "text": "Samples were visually observed for signs of deliquescence and analysed by XRPD post stressing for physical stability and HPLC for chemical stability."}}, "note": "Where two headings read alike, the source gives them in different places.", "data": [{"smiles": "CCN(CC)C(=O)[C@@H]1C=C2c3cccc4[nH]cc(c34)C[C@H]2N(C)C1.O=C(O)C(=O)O", "note": "[Amorphous D-LSD oxalate, amorphous D-LSD oxalate salt]", "values": [{"measurement": "form by XRPD after compression", "setting": "[1]", "result": "remained as an amorphous solid"}, {"measurement": "solubility", "setting": "[2]; EtOH, at 25° C., oxalate salt", "result": "> 200000", "unit": "µg/mL"}, {"measurement": "solubility", "setting": "[2]; MeOH, at 25° C., oxalate salt", "result": "> 200000", "unit": "µg/mL"}, {"measurement": "Solubility 25° C.", "setting": "[2]; solvent 1,4-dioxane, input amorphous D-LSD oxalate", "result": 9200, "unit": "µg/mL"}, {"measurement": "Solubility 25° C.", "setting": "[2]; solvent Chlorobenzene, input amorphous D-LSD oxalate", "result": 2300, "unit": "µg/mL"}, {"measurement": "Solubility 25° C.", "setting": "[2]; solvent EtOAc, input amorphous D-LSD oxalate", "result": 3420, "unit": "µg/mL"}, {"measurement": "Solubility 25° C.", "setting": "[2]; solvent IP AC, input amorphous D-LSD oxalate", "result": 4630, "unit": "µg/mL"}, {"measurement": "Solubility 25° C.", "setting": "[2]; solvent MEK, input amorphous D-LSD oxalate", "result": 2610, "unit": "µg/mL"}, {"measurement": "Solubility 25° C.", "setting": "[2]; solvent MIBK, input amorphous D-LSD oxalate", "result": 1600, "unit": "µg/mL"}, {"measurement": "Solubility 25° C.", "setting": "[2]; solvent MeCN, input amorphous D-LSD oxalate", "result": 5490, "unit": "µg/mL"}, {"measurement": "Solubility 25° C.", "setting": "[2]; solvent Me—THF, input amorphous D-LSD oxalate", "result": 6140, "unit": "µg/mL"}, {"measurement": "Solubility 25° C.", "setting": "[2]; solvent THF:water (95:5), input amorphous D-LSD oxalate", "result": 8670, "unit": "µg/mL"}, {"measurement": "Solubility 25° C.", "setting": "[2]; solvent nitromethane, input amorphous D-LSD oxalate", "result": 6490, "unit": "µg/mL"}]}, {"smiles": "CCN(CC)C(=O)[C@@H]1C=C2c3cccc4[nH]cc(c34)C[C@H]2N(C)C1.O=C(O)C(O)C(O)C(=O)O", "note": "[D-LSD D-tartrate Pattern A, D-LSD D-tartaric acid salt]", "values": [{"measurement": "reversibility of water uptake as relative humidity decreases", "setting": "DVS profile, only minor hysteresis", "result": "reversible"}, {"measurement": "weight lost during the initial desorption cycle", "setting": "[…]", "result": 0.6, "unit": "wt %"}, {"measurement": "water absorbed during the subsequent sorption cycle", "setting": "at 90% RH", "result": 1, "unit": "%"}, {"measurement": "water absorbed during the subsequent sorption cycle", "setting": "up to 80% RH", "result": 0.65, "unit": "%"}]}, {"smiles": "CCN(CC)C(=O)[C@@H]1C=C2c3cccc4[nH]cc(c34)C[C@H]2N(C)C1.O=S(=O)(O)O", "note": "[D-LSD Sulfate Amorphous Salt, D-LSD sulfate amorphous salt]", "values": [{"measurement": "solubility", "setting": "[2]; EtOH, at 25° C., sulfate salt", "result": "> 100000", "unit": "µg/mL"}, {"measurement": "solubility", "setting": "[2]; IPA/water (95:5), at 40° C., sulfate salt", "result": "> 100000", "unit": "µg/mL"}, {"measurement": "solubility", "setting": "[2]; MeOH, at 25° C., sulfate salt", "result": "> 200000", "unit": "µg/mL"}, {"measurement": "solubility", "setting": "[2]; iPrOAc/water (98:2), at 40° C., sulfate salt", "result": "> 100000", "unit": "µg/mL"}]}, {"smiles": "Br.CCN(CC)C(=O)[C@@H]1C=C2c3cccc4[nH]cc(c34)C[C@H]2N(C)C1", "note": "[D-LSD amorphous HBr, D-LSD hydrobromide amorphous salt]", "values": [{"measurement": "solubility", "setting": "[2]; 1,4-dioxane, at 40° C., HBr salt", "result": "> 100000", "unit": "µg/mL"}, {"measurement": "solubility", "setting": "[2]; EtOH, at 25° C., HBr salt", "result": "> 100000", "unit": "µg/mL"}, {"measurement": "solubility", "setting": "[2]; IPA/water (95:5 v/v), at 40° C., HBr salt", "result": "> 100000", "unit": "µg/mL"}, {"measurement": "solubility", "setting": "[2]; MEK, at 25° C., HBr salt", "result": "> 100000", "unit": "µg/mL"}, {"measurement": "solubility", "setting": "[2]; MeOH, at 25° C., HBr salt", "result": "> 200000", "unit": "µg/mL"}, {"measurement": "solubility", "setting": "[2]; THF/water (95:5 v/v), at 25° C., HBr salt", "result": "> 200000", "unit": "µg/mL"}, {"measurement": "solubility", "setting": "[2]; iPrOAc/water (98:2 v/v), at 40° C., HBr salt", "result": "> 100000", "unit": "µg/mL"}, {"measurement": "solubility", "setting": "[2]; nitromethane, at 25° C., HBr salt", "result": "> 100000", "unit": "µg/mL"}, {"measurement": "Solubility 25° C.", "setting": "[2]; solvent EtOAc, input D-LSD amorphous HBr", "result": 2630, "unit": "µg/mL"}, {"measurement": "Solubility 25° C.", "setting": "[2]; solvent IPAC*, input D-LSD amorphous HBr", "result": 4190, "unit": "µg/mL"}, {"measurement": "Solubility 25° C.", "setting": "[2]; solvent MIBK, input D-LSD amorphous HBr", "result": 16400, "unit": "µg/mL"}, {"measurement": "Solubility 25° C.", "setting": "[2]; solvent MeCN, input D-LSD amorphous HBr", "result": 8680, "unit": "µg/mL"}, {"measurement": "Solubility 25° C.", "setting": "[2]; solvent TBME*, input D-LSD amorphous HBr", "result": 9840, "unit": "µg/mL"}, {"measurement": "Solubility 25° C.", "setting": "[2]; solvent chlorobenzene, input D-LSD amorphous HBr", "result": 3120, "unit": "µg/mL"}, {"measurement": "Solubility 25° C.", "setting": "[2]; solvent heptane, input D-LSD amorphous HBr", "result": 50, "unit": "µg/mL"}, {"measurement": "Solubility 25° C.", "setting": "[2]; solvent toluene, input D-LSD amorphous HBr", "result": 3910, "unit": "µg/mL"}, {"measurement": "Solubility 25° C.", "setting": "[2]; solvent water, input D-LSD amorphous HBr", "result": 25100, "unit": "µg/mL"}]}, {"smiles": "CCN(CC)C(=O)C1C=C2c3cccc4[nH]cc(c34)CC2N(C)C1.O=C(O)C(=O)O", "note": "[D-LSD oxalate Pattern B]", "values": [{"measurement": "XRPD of Output", "setting": "[3]", "result": "oxalate Pattern B"}, {"measurement": "Nature of solid", "setting": "[3]", "result": "solid"}, {"measurement": "change in form after stress", "setting": "[3]", "result": "did not show a change in form"}]}, {"smiles": "CCN(CC)C(=O)[C@@H]1C=C2c3cccc4[nH]cc(c34)C[C@H]2N(C)C1.O=P(O)(O)O", "note": "[D-LSD phosphate Pattern C, D-LSD phosphoric acid salt Pattern C]", "values": [{"measurement": "XRPD of Output", "setting": "[3]", "result": "phosphate Pattern C"}, {"measurement": "Nature of solid", "setting": "[3]", "result": "solid"}, {"measurement": "change in form after stress", "setting": "[3]", "result": "did not show a change in form"}]}]}
